From patent US11584733B2, “Selective histone deacetylase inhibitors for the treatment of human disease” (Shuttle Pharmaceuticals, Inc., priority 2017, dated 2023) come the findings set out here.

In this test the test system is Pan HDAC (HeLa Nuclear Extract). Description: Pan HDAC assay (Enzo Fluor-de-Lys fluorometric kit, HeLa Nuclear Extract). Type of test: biochemical. The method, then:
The Pan HDAC assays described herein were performed as follows:
Materials: Enzo Fluor-de-Lys HDAC fluorometric activity assay kit; 360 nm excitation 460 nm emission Plate Reader; Disposable pipettes; Pipet-aid; Pipette tips; Micro-pipetter; DMSO; Sterile micro-tubes and conical tubes; and Micro-centrifuge.
Test compounds and control preparation: All test compounds' stock solutions were made in 100% DMSO. Test compound dilutions were made in HDAC Assay buffer with a final concentration of DMSO less than or equal to 1%. Vehicle control was HDAC Assay buffer with 1% DMSO.
The reagents for the assay were prepared as follows:
1. All kit components were defrosted and these, and all dilutions described below, were kept on ice until use. All undiluted kit components are stable for several hours on ice.
2. A sufficient amount of HeLa Nuclear Extract (BML-KI140) or other HDAC source diluted in Assay Buffer (BML-KI143) was prepared to provide for the assays that were performed (# of wells×15 μl). A 30-fold dilution of the HeLa Extract means that 15 μL contains 0.5 μl of the undiluted Extract, an appropriate amount to use per well.
3. Dilution(s) of SAHA and/or Test Inhibitors were prepared in Assay Buffer (BML-K1143). Since 10 μl were used per well, and since the final volume of the HDAC reaction was 50 μl, these inhibitor dilutions were 5× their final concentration.
4. Dilution(s) of the Fluor de Lys® Substrate (BML-KI104; 50 mM) were prepared in Assay Buffer (BML-K1143) that were 2× the desired final concentration(s). For inhibitor screening, substrate concentrations at or below the Km are recommended. Twenty-five μL were used per well. Initial dilutions of 25-fold or greater in Assay Buffer (2.0 mM or less) yielded stable solutions (see NOTE on freezing and thawing below). Rapid mixing and dilution into room temperature buffer helped to prevent precipitation at high substrate concentration. […]
6. Samples were read in a microtiter-plate reading fluorimeter capable of excitation at a wavelength in the range 350-380 nm and detection of emitted light in the range 440-460 nm.

The structures appear in SMILES notation.

The EC50 is the midpoint of the concentration-response curve. Where the note is “FIG. 4”, `O=C(CCCCCCC(=O)NC1CCC(=O)NC1=O)NO` (stereo not drawn) [SP-2-59, N^1-(2,6-dioxopiperidin-3-yl)-N^8-hydroxyoctanediamide] showed an EC50 of 16.4 µM. Further, the “inhibitor activity in the pan-HDACs assays” value (between 5 μM and 15 μM, FIGS. 2 to 4) is given as “minimal inhibitor activity”.

The term IC50 denotes the concentration at which inhibition is half-maximal. `O=C(CCCCCCC(=O)Nc1cccc2c1CN(C1CCC(=O)NC1=O)C2=O)NO` (stereo not drawn) [SP-2-93, N^1-(2-(2,6-dioxopiperidin-3-yl)-1-oxoisoindolin-4-yl)-N^8-hydroxyoctanediamide]: the IC50 (Example 6, FIG. 18, 2 mg/mL formulation in 5% DMSO/40% PEG 400/55% PBS, read-out: IC50 against the PAN HDAC) worked out at 1.89 µM.
